PubChem BioAssay (NCI)
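Following 48 hours of exposure in 96-well plates, responses at five concentrations were used to interpolate endpoints linearly. The concentration for full growth arrest is given as TGI.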

Assays:
Assay in all cases: growth of human tumour cells (NCI), 48 h
[1] = system: 786-0 renal
[2] = system: A549 NSCLC
[3] = system: ACHN renal
[4] = system: BT-549 breast
[5] = system: CAKI-1 renal
[6] = system: CCRF-CEM leukemia
[7] = system: COLO 205 colon
[8] = system: DU-145 prostate
[9] = system: EKVX NSCLC
[10] = system: HCC-2998 colon
[11] = system: HCT-116 colon
[12] = system: HCT-15 colon
[13] = system: HL-60(TB) leukemia
[14] = system: HOP-62 NSCLC
[15] = system: HOP-92 NSCLC
[16] = system: HS 578T breast
[17] = system: HT29 colon
[18] = system: IGROV1 ovarian
[19] = system: K-562 leukemia
[20] = system: KM12 colon
[21] = system: LOX IMVI melanoma
[22] = system: M14 melanoma
[23] = system: MALME-3M melanoma
[24] = system: MCF7 breast
[25] = system: MDA-MB-231 breast
[26] = system: MDA-MB-435
[27] = system: MDA-N
[28] = system: MOLT-4 leukemia
[29] = system: NCI-H226 lung
[30] = system: NCI-H23 lung
[31] = system: NCI-H460 lung
[32] = system: NCI-H522 lung
[33] = system: NCI/ADR-RES ovarian
[34] = system: OVCAR-4 ovarian
[35] = system: OVCAR-8 ovarian
[36] = system: PC-3 prostate
[37] = system: RPMI-8226 leukemia
[38] = system: RXF 393 renal
[39] = system: SF-268 CNS
[40] = system: SF-295 CNS
[41] = system: SF-539 CNS
[42] = system: SK-MEL-28 melanoma
[43] = system: SK-MEL-5 melanoma
[44] = system: SK-OV-3 ovarian
[45] = system: SN12C renal
[46] = system: SNB-19 CNS
[47] = system: SNB-75 CNS
[48] = system: SR leukemia
[49] = system: SW-620 colon
[50] = system: T-47D breast
[51] = system: TK-10 renal
[52] = system: UACC-257 melanoma
[53] = system: UACC-62 melanoma
[54] = system: UO-31 renal
[55] = system: A498 renal
[56] = system: OVCAR-3 ovarian
[57] = system: OVCAR-5 ovarian
[58] = system: SK-MEL-2 melanoma
[59] = system: U251 CNS

## O=C1NNC2(C(=O)N1)c1ccccc1-c1ccccc12
[1]
  TGI: > 10 µM
[2]
  TGI: > 10 µM
[3]
  TGI: > 10 µM
[4]
  TGI: > 10 µM
[5]
  TGI: > 10 µM
[6]
  TGI: > 10 µM
[7]
  TGI: > 10 µM
[8]
  TGI: > 10 µM
[9]
  TGI: > 10 µM
[10]
  TGI: > 10 µM
[11]
  TGI: > 10 µM
[12]
  TGI: > 10 µM
[13]
  TGI: > 10 µM
[14]
  TGI: > 10 µM
[15]
  TGI: > 10 µM
[16]
  TGI: > 10 µM
[17]
  TGI: > 10 µM
[18]
  TGI: > 10 µM
[19]
  TGI: > 10 µM
[20]
  TGI: > 10 µM
[21]
  TGI: > 10 µM
[22]
  TGI: > 10 µM
[23]
  TGI: > 10 µM
[24]
  TGI: > 10 µM
[25]
  TGI: > 10 µM
[26]
  TGI: > 10 µM
[27]
  TGI: > 10 µM
[28]
  TGI: > 10 µM
[29]
  TGI: > 10 µM
[30]
  TGI: > 10 µM
[31]
  TGI: > 10 µM
[32]
  TGI: > 10 µM
[33]
  TGI: > 10 µM
[34]
  TGI: > 10 µM
[35]
  TGI: > 10 µM
[36]
  TGI: > 10 µM
[37]
  TGI: > 10 µM
[38]
  TGI: > 10 µM
[39]
  TGI: > 10 µM
[40]
  TGI: > 10 µM
[41]
  TGI: > 10 µM
[42]
  TGI: > 10 µM
[43]
  TGI: > 10 µM
[44]
  TGI: > 10 µM
[45]
  TGI: > 10 µM
[46]
  TGI: > 10 µM
[47]
  TGI: > 10 µM
[48]
  TGI: > 10 µM
[49]
  TGI: > 10 µM
[50]
  TGI: > 10 µM
[51]
  TGI: > 10 µM
[52]
  TGI: > 10 µM
[53]
  TGI: > 10 µM
[54]
  TGI: > 10 µM

## COC(=O)c1cc(=O)[nH]c(=O)[nH]1
[1]
  TGI: > 100 µM
[55]
  TGI: > 100 µM
[2]
  TGI: > 100 µM
[3]
  TGI: > 100 µM
[4]
  TGI: > 100 µM
[5]
  TGI: > 100 µM
[8]
  TGI: > 100 µM
[9]
  TGI: > 100 µM
[11]
  TGI: > 100 µM
[12]
  TGI: > 100 µM
[13]
  TGI: > 100 µM
[14]
  TGI: > 100 µM
[15]
  TGI: > 100 µM
[17]
  TGI: > 100 µM
[18]
  TGI: > 100 µM
[19]
  TGI: > 100 µM
[21]
  TGI: > 100 µM
[22]
  TGI: > 100 µM
[23]
  TGI: > 100 µM
[25]
  TGI: > 100 µM
[26]
  TGI: > 100 µM
[27]
  TGI: > 100 µM
[28]
  TGI: > 100 µM
[29]
  TGI: > 100 µM
[30]
  TGI: > 100 µM
[31]
  TGI: > 100 µM
[32]
  TGI: > 100 µM
[33]
  TGI: > 100 µM
[56]
  TGI: > 100 µM
[34]
  TGI: > 100 µM
[57]
  TGI: > 100 µM
[35]
  TGI: > 100 µM
[36]
  TGI: > 100 µM
[38]
  TGI: > 100 µM
[39]
  TGI: > 100 µM
[40]
  TGI: > 100 µM
[58]
  TGI: > 100 µM
[42]
  TGI: > 100 µM
[43]
  TGI: > 100 µM
[45]
  TGI: > 100 µM
[46]
  TGI: > 100 µM
[47]
  TGI: > 100 µM
[48]
  TGI: > 100 µM
[49]
  TGI: > 100 µM
[50]
  TGI: > 100 µM
[51]
  TGI: > 100 µM
[59]
  TGI: > 100 µM
[52]
  TGI: > 100 µM
[53]
  TGI: > 100 µM
[54]
  TGI: > 100 µM
